Format in all cases: cell-based, human
Assay [1] deals with ventral midbrain organoids. The experiment in a line: CHIR dose curve (Wnt activation) for midbrain induction in ventral midbrain organoids (qPCR OTX2, FOXA2, TH). On the procedure:
FIG. 2A-D: qPCR analysis of markers of ventral midbrain of the dose curving experiment to generate ventral midbrain organoids. Two separate dose curving experiments were performed, where first the correct dosage of sonic hedgehog activation was tested (FIG. 2A, floor plate marker FOXA2). Secondly, we performed qPCR to test for appropriate concentrations of posteriorization using Wnt activation. Dopaminergic neurons are born in the very ventral floor plate of the posterior midbrain, next to the midbrain-hindbrain boundary, thus the Forebrain and Midbrain marker OTX2 should still be expressed, whereas the hindbrain is OTX2 negative. We found a concentration of 0.8-1 μM sufficient to introduce midbrain (FIG. 2B), while the floor plate marker FOXA2 was still expressed (FIG. 2C). qPCR for the dopaminergic marker TH (Tyrosine hydroxylase, the rate-limiting enzyme for dopamine synthesis) confirmed this concentration of Wnt activation, with a sharp drop of TH expression starting at 1.2 μM CHIR (FIG. 2D).
All qPCR data are relative to the expression of TBP.
For each condition, 6-8 organoids were collected at indicated time points into 2 ml RNAse-free tubes. RNA was extracted using the Rneasy mini kit (Qiagen). […]
Quantification was performed in excel by calculating ΔCt relative to TBP. […]
On the technique in general: Real-time PCR tracks product formation cycle by cycle.

Assay [2] deals with VM, striatal and cortical neurons of fused organoids. Put plainly: Chronic cocaine treatment of fused organoids: GCAMP6S calcium imaging. Conditions: for calcium event frequency: VM, striatal and cortical patterned neurons. How it is done:
(§1) A, Schematic for the treatment of fused organoids with cocaine. […] Functional, morphological and transcriptional analysis was performed on day 130. B, Representative images of dopaminergic (TH^+) axons in striatal and cortical tissue in control, chronic and withdrawal fused organoids. C, Schematic for the extraction of varicosity density and varicosity diameter in dopaminergic axons. D, Quantifications of TH^+ varicosity density in striatal and cortical tissue. N=6-8 organoids per condition, 39-49 axons. E, Measurement of varicosity diameter (axon average) in striatal and cortical tissue. N=6-8 organoids, 36-47 axons per condition and 1055|1552|1347 (striatal) and 923|1063|1340 (cortical) boutons measured. F, Schematic of the parameters' frequency and duration from GCAMP traces after extraction with CaImAn. G-H, fused organoids with GCAMP6S expression in either VM, striatal or cortical tissue were recorded on day 130 in control, chronic and withdrawal conditions (10-21 organoids per condition). […] H, Analysis of calcium event frequency of striatal (n=248|245|680) and cortical (175|936|885) neurons in control, chronic and withdrawal conditions. I-J, Volcano plot comparing bulk RNAseq data of day 130 forebrain organoids chronic versus control (I) and withdrawal versus control (J) (n=6-9 organoids of 2-3 batches). […] Samples were analyzed with one-way ANOVA followed by unpaired Mann-Whitney test.
(§2) A, Representative 130 day old GCAMP recordings of fused organoids with Syn-GCAMP expression either in the cortical, or striatal, or VM tissue in control (left), chronic (middle) and withdrawal (right) condition. […] D, Analysis of calcium event frequency of VM (n=100|278|115) neurons in control, chronic and withdrawal conditions. […] Samples were analyzed with one-way ANOVA followed by unpaired Mann-Whitney test (C, D). E-F, Volcano plots of differentially expressed genes in VM tissue in chronic versus control I and withdrawal versus control (F). G-I, GSEA analysis of three GO terms associated with neural circuit formation (Dendrite Development, Axon Development and Synapse Organization) in forebrain chronic vs control (top) and forebrain withdrawal versus control (bottom).
Organoids were grown until […]. GCAMP was recorded using an Olympus Spinning Disk (see Microscopy section). In brief, 20× magnification and an exposure time of 65 ms per frame (continuous recording) were used for up to 6.5 min of continuous recording. For trace extraction, recordings were scaled down from 2048×2048 to 512×512 pixels. Trace extraction was performed using the opensource software package CaImAn (Flatiron Institute).
(§3) Here, we used the neural multi-tissue organoids to test the effects of cocaine on the establishment of the dopaminergic system. Cocaine is a dopamine reuptake inhibitor, which binds to the dopamine transporter (DAT) and inhibits the reuptake of dopamine after release and thus increases the available levels of dopamine to target cells. While the effects of cocaine on the adult brain are relatively well understood, not much is known about the effects of cocaine on the development of the CNS-predominantly because of the lack of an effective model system. We tested the effects of chronic cocaine exposure and its potential effect on the establishment of the dopaminergic system. […] We chronically treated fused organoids with cocaine from day 40 until day 130 and generated a withdrawal condition which was not exposed to cocaine from day 105 onwards (FIG. 17A).
In vivo, cocaine exposure has been associated with changes in neural activity.

Assay [3] relates to forebrain and VM tissue of fused organoids. The experiment in a line: Chronic cocaine treatment of fused organoids: bulk RNAseq. Conditions: for transcriptional change (bulk RNAseq): day 130. How it is done:
as §1, §2, §3

The test system of assay [4] is dopaminergic (TH+) axons in striatal and cortical tissue of fused organoids. The experiment in a line: Chronic cocaine treatment of fused organoids: TH+ varicosity density and diameter. Conditions: for density of TH+ varicosities on axons / diameter of TH+ varicosities: chronic 0.7 μM, vs control; for density of TH+ varicosities on axons: 1 h every 3 days, day 40-130; for diameter of TH+ varicosities: day 130. On the procedure:
A, Schematic for the treatment of fused organoids with cocaine. […] Functional, morphological and transcriptional analysis was performed on day 130. B, Representative images of dopaminergic (TH^+) axons in striatal and cortical tissue in control, chronic and withdrawal fused organoids. C, Schematic for the extraction of varicosity density and varicosity diameter in dopaminergic axons. D, Quantifications of TH^+ varicosity density in striatal and cortical tissue. N=6-8 organoids per condition, 39-49 axons. E, Measurement of varicosity diameter (axon average) in striatal and cortical tissue. N=6-8 organoids, 36-47 axons per condition and 1055|1552|1347 (striatal) and 923|1063|1340 (cortical) boutons measured. F, Schematic of the parameters' frequency and duration from GCAMP traces after extraction with CaImAn. G-H, fused organoids with GCAMP6S expression in either VM, striatal or cortical tissue were recorded on day 130 in control, chronic and withdrawal conditions (10-21 organoids per condition). […] 1776|2144|4254 individual calcium events (striatal) and 1437|6931|8000 individual calcium events (cortical). H, Analysis of calcium event frequency of striatal (n=248|245|680) and cortical (175|936|885) neurons in control, chronic and withdrawal conditions. I-J, Volcano plot comparing bulk RNAseq data of day 130 forebrain organoids chronic versus control (I) and withdrawal versus control (J) (n=6-9 organoids of 2-3 batches). […] Samples were analyzed with one-way ANOVA followed by unpaired Mann-Whitney test.
2Eci tissue clearing was performed as previously described (Masselink & Reumann, et al., Development 146, 2019). In brief, organoids were fixed with 4% formaldehyde in PBS for 4 h at RT. For 3D immunohistochemistry, PBS-TxDB was prepared: 10×PBS, 5% BSA and 2% TX100 were pre-mixed and filled up with distilled water to achieve approx. 70% of aimed volume (e.g. for 11 of PBS-TxDB, 100 ml of 10×PBS, 50 g BSA and 20 ml TX100 were used and filled up to 700 ml with distilled water. 20% DMSO was then added slowly under heavy stirring-rapid addition of DMSO may result in irreversible BSA aggregation. The solution was filled up to 100% with distilled water and sterile filtered. PBS-TxDB is stable at RT for at least several weeks, or at 4° C. for up to a year.
Organoids were blotted/permeabilized on a rotor or shaking plate for 1-2 days in 10 ml PBS-TxDB at RT. Organoids (dependent on the size, between 3 and 6) were then transferred into 2 ml Eppendorf tubes containing primary antibody solution in PBS-TxDB (between 500 μl to 1 ml) and transferred to a rotor or shaking plate for 5 days. Organoids were then washed in 10 ml PBS-TxDB for 2 days (1× rinse, 3×PBS-TxDB exchange) and the same steps were repeated for secondaries. After washing off the residual secondaries, organoids were washed in PBS for 1 h and then fixed in 4% Formaldehyde solution for 30 min-2 h. Organoids were then ready to be dehydrated in a 1-Propanol gradient (30%, 50%, 70%, 100%, 100%, 4-8 h per step). As no endogenous fluorescence had to be maintained, pH adjustment of the 1-Propanol was skipped. After dehydration, organoids were transferred into Ethyl Cinnamate and were ready for imaging as soon as completely transparent (1-3 h or overnight at RT). Cleared organoids were stored at room temperature and should not be transferred to 4° C., as Ethyl Cinnamate crystallizes out at lower temperatures. […]

Where “and” joins values, the source holds several entries; their conditions need not be identical. Identical values can stand only once. Counter-ions that a name gives are not always drawn.

As to `Cc1cnc(-c2cnc(NCCNc3ccc(C#N)cn3)nc2-c2ccc(Cl)cc2Cl)[nH]1` [CHIR, 6-[[2-[[4-(2,4-dichlorophenyl)-5-(5-methyl-1H-imidazol-2-yl)-2-pyrimidinyl]amino]ethyl]amino]-3-pyridinecarbonitrile], in assay [1] (OTX2, FOXA2 and TH still expressed (qPCR)), the “concentration sufficient for midbrain induction” value is 0.8 to 1 µM and 1 µM. In addition, in assay [1] (qPCR, relative to TBP), the “concentration at which sharp drop of TH expression starts” value is at least 1.2 µM.

Take `COC(=O)[C@H]1[C@@H](OC(=O)c2ccccc2)C[C@@H]2CC[C@H]1N2C` [cocaine hydrochloride]: the calcium event duration entry in assay [2] (VM neurons, chronic condition, day 130) is “decrease”; in assay [2] (VM neurons, cocaine withdrawal), “without recovery”; in assay [2] (cortical patterned neurons, chronic condition, day 130, vs control, hydrochloride), “increase”; in assay [2] (cortical patterned neurons, chronic condition, day 130, vs control, listed as cocaine, hydrochloride), “significant increase”; in assay [2] (striatal neurons, chronic condition, day 130, vs control, hydrochloride) it was “significant decrease”; in assay [2] (striatal neurons, chronic condition, day 130, vs control, listed as cocaine, hydrochloride), “significantly shorter”. Besides, the calcium event duration entry in assay [2] (withdrawal condition, striatal and cortical neurons) is on record as “not significantly different from the chronic condition”. The calcium event frequency result was “fewer events per minute” in assay [2] (cocaine treated vs control) and “only partially recover” in assay [2] (withdrawal condition). Further, the “transcriptional change (bulk RNAseq)” value was “only little transcriptional change” in assay [3] (VM tissue, chronic and withdrawal vs control); “a broad list of genes was differentially expressed” in assay [3] (forebrain, chronic and withdrawal conditions vs control). For the same compound, the “genes associated with interferon response (such as IFITM2 and IFITM3)” value in assay [3] (forebrain, chronic and withdrawal conditions) is “upregulated”. In addition, in assay [3] (forebrain, chronic and withdrawal vs control), the “genes associated with neural circuit formation (GO term analysis)” value is on record as “downregulation”. In assay [3] (forebrain, chronic exposure and withdrawal vs control), the “GSEA of GO terms dendrite development, axon development and synapse organization” value is “consistently and significantly downregulated”. Besides, the “diameter of TH+ varicosities, rescue by withdrawal” value in assay [4] (25-day long withdrawal, striatal and cortical tissue) is given as “failed to rescue”. The “density of TH+ varicosities on axons” value in assay [4] (cortical tissue) and in assay [4] (striatal tissue) was “significantly increased” throughout. Moreover, the “diameter of TH+ varicosities” value in assay [4] (cortical tissue) and in assay [4] (striatal tissue) was “significantly reduced” in each case.

For the origin of these results see patent US20260185056A1, “TRIPLE TISSUE CULTURE FUSION” (IMBA - INSTITUT FÜR MOLEKULARE BIOTECHNOLOGIE GMBH, priority 2022, published 2026).
